# Where two headings read alike, the source gives them in different places.
# Tests used:
# Zymoseptoria tritici = experiment: Leaf Blotch of Wheat (SEPTTR) disease control on wheat seedlings; type: in vivo; conditions: Low Volume (121.5 g/H)
# Description: Example A: Evaluation of Fungicidal Activity: Leaf Blotch of Wheat (Mycosphaerella graminicola; Anamorph: Zymoseptoria tritici; Bayer code […]) Technical grades of materials were dissolved in acetone, which were then mixed with nine volumes of water containing 110 ppm Triton X-100. The fungicide solutions were applied onto wheat seedlings using an automated booth sprayer to run-off. All sprayed plants were allowed to air dry prior to further handling. All fungicides were evaluated using the aforementioned method for their activity vs. all target diseases, unless stated otherwise. Wheat leaf blotch and brown rust activity were also evaluated using track spray applications, in which case the fungicides were formulated as EC formulations, containing 0.1% Trycol 5941 in the spray solutions. Wheat plants (variety Yuma) were grown from seed in a greenhouse in 50% mineral soil/50% soil-less Metro mix until the first leaf was fully emerged, with 7-10 seedlings per pot. These plants were inoculated with an aqueous spore suspension of Septoria tritici either prior to or after fungicide treatments. After inoculation the plants were kept in 100% relative humidity (one day in a dark dew chamber followed by two to three days in a lighted dew chamber at 20° C.) to permit spores to germinate and infect the leaf. The plants were then transferred to a greenhouse set at 20° C. for disease to develop. When disease symptoms were fully expressed on the 1st leaves of untreated plants, infection levels were assessed on a scale of 0 to 100 percent disease severity. Percent disease control was calculated using the ratio of disease severity on treated plants relative to untreated plants.
# Puccinia triticina = experiment: Wheat Brown Rust (PUCCRT) disease control on wheat seedlings; type: in vivo; conditions: Low Volume (121.5 g/H)
# Description: Technical grades of materials were dissolved in acetone, which were then mixed with nine volumes of water containing 110 ppm Triton X-100. The fungicide solutions were applied onto wheat seedlings using an automated booth sprayer to run-off. All sprayed plants were allowed to air dry prior to further handling. All fungicides were evaluated using the aforementioned method for their activity vs. all target diseases, unless stated otherwise. Wheat leaf blotch and brown rust activity were also evaluated using track spray applications, in which case the fungicides were formulated as EC formulations, containing 0.1% Trycol 5941 in the spray solutions. Wheat plants (variety Yuma) were grown from seed in a greenhouse in 50% mineral soil/50% soil-less Metro mix until the first leaf was fully emerged, with 7-10 seedlings per pot. These plants were inoculated with an aqueous spore suspension of Septoria tritici either prior to or after fungicide treatments. After inoculation the plants were kept in 100% relative humidity (one day in a dark dew chamber followed by two to three days in a lighted dew chamber at 20° C.) to permit spores to germinate and infect the leaf. The plants were then transferred to a greenhouse set at 20° C. for disease to develop. When disease symptoms were fully expressed on the 1st leaves of untreated plants, infection levels were assessed on a scale of 0 to 100 percent disease severity. Percent disease control was calculated using the ratio of disease severity on treated plants relative to untreated plants. Example B: Evaluation of Fungicidal Activity: Wheat Brown Rust (Puccinia triticina; Synonym: Puccinia recondita f. sp. tritici; Bayer code PUCCRT) Wheat plants (variety Yuma) were grown from seed in a greenhouse in 50% mineral soil/50% soil-less Metro mix until the first leaf was fully emerged, with 7-10 seedlings per pot. These plants were inoculated with an aqueous spore suspension of Puccinia triticina either prior to or after fungicide treatments. After inoculation the plants were kept in a dark dew room at 22° C. with 100% relative humidity overnight to permit spores to germinate and infect the leaf. The plants were then transferred to a greenhouse set at 24° C. for disease to develop. Fungicide formulation, application and disease assessment followed the procedures as described in the Example A.
# [1] = 24 h, 1 Day Protectant, read-out: SEPTTR disease control, 1 DP
# [2] = 72 h, 3 Day Curative, read-out: SEPTTR disease control, 3 DC
# [3] = 24 h, 1 Day Protectant, read-out: PUCCRT disease control, 1 DP
# [4] = 72 h, 3 Day Curative, read-out: PUCCRT disease control, 3 DC
Structure (SMILES),pest or weed control at 121.5 g/ha (Zymoseptoria tritici; [1]),pest or weed control at 121.5 g/ha (Zymoseptoria tritici; [2]),pest or weed control at 121.5 g/ha (Puccinia triticina; [3]),pest or weed control at 121.5 g/ha (Puccinia triticina; [4])
COc1ccnc(C(=O)N[C@H]2CCOC[C@@H](Cc3ccccc3)[C@H](C)OC2=O)c1OC(C)=O [Compound 1],> 70%,> 70%,> 70%,> 70%
COCC[C@H]1OCC[C@H](NC(=O)c2nccc(OC)c2OC(C)=O)C(=O)O[C@@H](C)[C@@H]1Cc1ccccc1 [Compound 4],> 70%,> 70%,> 70%,> 70%
COc1ccnc(C(=O)N[C@H]2CCOC[C@@H](Cc3ccc(F)cc3)[C@H](C)OC2=O)c1OC(C)=O [Compound 5],> 70%,< 70%,> 70%,> 70%
CCCC[C@H]1OCC[C@H](NC(=O)c2nccc(OC)c2OC(C)=O)C(=O)O[C@@H](C)[C@@H]1Cc1ccc(F)cc1 [Compound 6],> 70%,> 70%,> 70%,> 70%
"COc1ccnc(C(=O)N[C@H]2CCO[C@H](CCc3ccccc3)[C@@H](Cc3ccc(F)cc3)[C@H](C)OC2=O)c1OC(C)=O [Compound 7, 2-(((2R,3S,4S,7S)-3-(4-fluorobenzyl)-4-methyl-6-oxo-2-phenethyl-1,5-dioxonan-7-yl)carbamoyl)-4-methoxypyridin-3-yl acetate]",> 70%,> 70%,> 70%,> 70%
COCC[C@H]1OCC[C@H](NC(=O)c2nccc(OC)c2OC(C)=O)C(=O)O[C@@H](C)[C@@H]1Cc1ccc(F)cc1 [Compound 8],> 70%,< 70%,> 70%,> 70%
COc1ccnc(C(=O)N[C@H]2CCO[C@H](CCc3ccccc3)[C@@H](CCC(C)C)[C@H](C)OC2=O)c1OC(C)=O [Compound 9],> 70%,> 70%,> 70%,> 70%
COc1ccnc(C(=O)N[C@H]2CCO[C@H](CCc3ccc(F)cc3)[C@@H](CCC(C)C)[C@H](C)OC2=O)c1OC(C)=O [Compound 10],> 70%,> 70%,> 70%,> 70%
COc1ccnc(C(=O)N[C@H]2CCOC[C@@H](Cc3ccccc3-c3ccccc3)[C@H](C)OC2=O)c1OC(C)=O [Compound 11],> 70%,< 70%,> 70%,> 70%
COc1ccnc(C(=O)N[C@H]2CCO[C@H](Cc3ccccc3)[C@@H](CCC(C)C)[C@H](C)OC2=O)c1OC(C)=O [Compound 12],> 70%,> 70%,> 70%,> 70%
CCCC[C@H]1[C@H](C)OC(=O)[C@@H](NC(=O)c2nccc(OC)c2OC(C)=O)CCO[C@@H]1CCc1ccccc1 [Compound 13],> 70%,> 70%,> 70%,> 70%
CCCC[C@H]1[C@H](C)OC(=O)[C@@H](NC(=O)c2nccc(OC)c2OC(C)=O)CCO[C@@H]1CC [Compound 14],> 70%,< 70%,> 70%,> 70%
CCCC[C@H]1[C@H](C)OC(=O)[C@@H](NC(=O)c2nccc(OC)c2OC(C)=O)CCO[C@@H]1COc1ccccc1 [Compound 15],> 70%,> 70%,> 70%,> 70%
COc1ccnc(C(=O)N[C@H]2CCOC[C@@H](Cc3ccccc3)[C@H](C)OC2=O)c1OCOC(C)=O [Compound 16],< 70%,< 70%,> 70%,> 70%
CCCC[C@H]1OCC[C@H](NC(=O)c2nccc(OC)c2OCOC(C)=O)C(=O)O[C@@H](C)[C@@H]1Cc1ccccc1 [Compound 18],> 70%,> 70%,> 70%,> 70%
COc1ccnc(C(=O)N[C@H]2CCO[C@H](Cc3ccccc3)[C@@H](Cc3ccccc3)[C@H](C)OC2=O)c1OCOC(C)=O [Compound 19],> 70%,> 70%,> 70%,> 70%
COCC[C@H]1OCC[C@H](NC(=O)c2nccc(OC)c2OCOC(C)=O)C(=O)O[C@@H](C)[C@@H]1Cc1ccccc1 [Compound 20],> 70%,> 70%,> 70%,> 70%
COc1ccnc(C(=O)N[C@H]2CCOC[C@@H](Cc3ccc(F)cc3)[C@H](C)OC2=O)c1OCOC(C)=O [Compound 21],> 70%,< 70%,> 70%,> 70%
CC[C@H]1OCC[C@H](NC(=O)c2nccc(OC)c2OCOC(C)=O)C(=O)O[C@@H](C)[C@@H]1Cc1ccc(F)cc1 [Compound 22],> 70%,> 70%,> 70%,> 70%
CCCC[C@H]1OCC[C@H](NC(=O)c2nccc(OC)c2OCOC(C)=O)C(=O)O[C@@H](C)[C@@H]1Cc1ccc(F)cc1 [Compound 23],> 70%,> 70%,> 70%,> 70%
"COc1ccnc(C(=O)N[C@H]2CCO[C@H](CCc3ccccc3)[C@@H](Cc3ccc(F)cc3)[C@H](C)OC2=O)c1OCOC(C)=O [Compound 24, ((2-(((2R,3S,4S,7S)-3-(4-fluorobenzyl)-4-methyl-6-oxo-2-phenethyl-1,5-dioxonan-7-yl)carbamoyl)-4-methoxypyridin-3-yl)oxy)methyl acetate]",> 70%,> 70%,> 70%,> 70%
COCC[C@H]1OCC[C@H](NC(=O)c2nccc(OC)c2OCOC(C)=O)C(=O)O[C@@H](C)[C@@H]1Cc1ccc(F)cc1 [Compound 25],< 70%,< 70%,> 70%,> 70%
COc1ccnc(C(=O)N[C@H]2CCOC[C@@H](Cc3ccccc3-c3ccccc3)[C@H](C)OC2=O)c1OCOC(C)=O [Compound 28],> 70%,> 70%,> 70%,> 70%
COc1ccnc(C(=O)N[C@H]2CCOC[C@@H](CCC(C)C)[C@H](C)OC2=O)c1OCOC(C)=O [Compound 30],> 70%,> 70%,> 70%,> 70%
CCCC[C@H]1[C@H](C)OC(=O)[C@@H](NC(=O)c2nccc(OC)c2OCOC(C)=O)CCO[C@@H]1CCc1ccccc1 [Compound 31],> 70%,> 70%,> 70%,> 70%
